Holding throughout (format): in vivo
For experiment [1], the system named is Alopecurus myosuroides (ALOMY). The experiment in a line: Biological Example 1 glasshouse screen, post-emergence herbicidal activity. To be noted: 312 h, application rate 250 g/ha, evaluated after 13 days, read-out: ALOMY percentage phytotoxicity. The procedure:
(§1) Seeds of a variety of test species were sown in standard soil in pots. After cultivation for one day (pre-emergence) or after 8 days cultivation (post-emergence) under controlled conditions in a glasshouse (at 24/16°C., day/night; 14 hours light; 65% humidity), the plants were sprayed with an aqueous spray solution derived from the formulation of the “technical”(i.e. unformulated) active ingredient in acetone/water (50:50) solution containing 0.5% Tween 20 (polyoxyethylene sorbitan monolaurate, CAS Registry Number 9005-64-5). The test plants were then grown in a glasshouse under controlled conditions in a glasshouse (at 24/16°C., day/night; 14 hours light; 65% humidity) and watered twice daily. After 13 days for pre- or post-emergence, the test was evaluated visually, and an assessed percentage phytotoxicity score given for each herbicidal application on each plant/weed species (with 100%=total damage to plant; 0%=no damage to plant).
(§2) Test plants: Alopecurus myosuroides (ALOMY), Setaria faberi (SETFA), Echinochloa crus-galli (ECHCG), Solanum nigrum (SOLNI), Amaranthus retroflexus (AMARE) and Ipomoea hederacea (IPOHE). ALOMY, SETFA and ECHCG are grassy monocotyledonous weeds. SOLNI, AMARE and IPOHE are dicotyledonous (broadleaved) weeds.
(§3) Test plants: Lolium perenne (LOLPE), Alopecurus myosuroides (ALOMY), Echinochloa crus-galli (ECHCG), and Avena fatua (AVEFA). All four of these are grassy monocotyledonous weeds.

Experiment [2] has as its system Echinochloa crus-galli (ECHCG). The description is as above. The settings on record: 312 h, application rate 250 g/ha, evaluated after 13 days, read-out: ECHCG percentage phytotoxicity. The protocol:
as §1, §2, §3

The test system of experiment [3] is Lolium perenne (LOLPE). Described as above. The settings on record: 312 h, application rate 250 g/ha, evaluated after 13 days, read-out: LOLPE percentage phytotoxicity. The procedure: as §1, §3
For experiment [4], the system named is Avena fatua (AVEFA). The experiment is described as above. The settings on record: 312 h, application rate 250 g/ha, evaluated after 13 days, read-out: AVEFA percentage phytotoxicity. The protocol:
as §1, §3

Experiment [5] has as its system Lolium perenne (LOLPE). The experiment in a line: Biological Example 1 glasshouse screen, pre-emergence herbicidal activity. To be noted: 312 h, application rate 250 g/ha, evaluated after 13 days, read-out: LOLPE percentage phytotoxicity. The procedure: as §1, §3
In experiment [6] the test system is Avena fatua (AVEFA). The experiment is described as above. The settings on record: 312 h, application rate 250 g/ha, evaluated after 13 days, read-out: AVEFA percentage phytotoxicity. The procedure: as §1, §3
Experiment [7] has as its system Alopecurus myosuroides (ALOMY). The description is as above. To be noted: 312 h, application rate 250 g/ha, evaluated after 13 days, read-out: ALOMY percentage phytotoxicity. The protocol:
as §1, §2, §3

Experiment [8] deals with Echinochloa crus-galli (ECHCG). The description is as above. To be noted: 312 h, application rate 250 g/ha, evaluated after 13 days, read-out: ECHCG percentage phytotoxicity. The procedure: as §1, §2, §3
Experiment [9] deals with Avena fatua, wild oats (AVEFA). The experiment in a line: Biological Example 3 glasshouse screen, post-emergence herbicidal activity. The settings on record: 360 h, application rate 30 g/ha, 15 DAA, no safener, read-out: AVEFA percentage phytotoxicity. The procedure: (§4) Test Method: Seeds of a variety of test species are sown in standard soil in pots. After cultivation for one day (pre-emergence) or after 12 days cultivation (post-emergence) under controlled conditions in a glasshouse (warm climate species at 24/18°C., cool climate species at 20/16°C., both at day/night; 16 hours light; 65% humidity), the plants are sprayed with an aqueous spray solution derived from the formulation of the “technical”(i.e. unformulated) active ingredient dissolved in acetone plus IF50, at a 1:20 ratio of “technical”active ingredient to IF50. The IF50 contains about 10.56 weight % Emulsogen EL™(castor oil ethoxylate, CAS Registry number 61791-12-6), about 42.22 weight % N-methylpyrrolidone, and about 42.22 weight % DPG-Monoethyl ether (dipropylene glycol mono-ethyl ether). The adjuvant X-77 (a mixture of alkyl aryl polyoxyethylene glycols and free fatty acids in isopropanol, CAS Registry number 11097-66-8) is added to the aqueous spray solution to form a 0.2% v/v solution, before spraying onto the plants.
(§5) The test plants are then grown in a glasshouse under controlled conditions in a glasshouse (at 24/18°C. or 20/16°C., day/night; 16 hours light; 65% humidity) and watered twice daily. After 15 days after application of the herbicide (15 DAA) (for post-emergence), and after 20 DAA (for pre-emergence), the test is evaluated visually, and an assessed percentage phytotoxicity score is given for each herbicidal application on each plant/weed species (with 100%=total damage to plant; 0%=no damage to plant). […]

Experiment [10] concerns Echinochloa crus galli, barnyardgrass (ECHCG). The experiment is described as above. The settings on record: 360 h, application rate 30 g/ha, 15 DAA, no safener, read-out: ECHCG percentage phytotoxicity. The protocol: as §4, §5
Experiment [11] concerns Lolium perenne, perennial ryegrass (LOLPE). The description is as above. To be noted: 360 h, application rate 30 g/ha, 15 DAA, no safener, read-out: LOLPE percentage phytotoxicity. The protocol:
as §4, §5

The subject of experiment [12] is Alopecurus myosuroides, blackgrass (ALOMY). The description is as above. The settings on record: 360 h, application rate 30 g/ha, 15 DAA, no safener, read-out: ALOMY percentage phytotoxicity. The protocol:
as §4, §5

Experiment [13] has as its system Triticum aestivum, wheat (TRZAW). The experiment in a line: Biological Example 3 glasshouse screen, post-emergence, phytotoxicity on wheat. To be noted: 360 h, application rate 30 g/ha, 15 DAA, no safener, read-out: TRZAW percentage phytotoxicity. The procedure:
as §4
The test plants are then grown in a glasshouse under controlled conditions in a glasshouse (at 24/18°C. or 20/16°C., day/night; 16 hours light; 65% humidity) and watered twice daily. After 15 days after application of the herbicide (15 DAA) (for post-emergence), and after 20 DAA (for pre-emergence), the test is evaluated visually, and an assessed percentage phytotoxicity score is given for each herbicidal application on each plant/weed species (with 100%=total damage to plant; 0%=no damage to plant).
These give an approximate indication of the level of selectivity on wheat for these tested compounds, when a herbicide safener such as cloquintocet-mexyl is not used: […]

For the compound `CC#Cc1cc(C)c(C2=C(O)CC(Cc3cccc(C#N)n3)C2=O)c(C)c1` (centres unmarked) [Compound A-12], the pest or weed control at 250 g/ha in experiment [1] worked out at 90%; in [2], 100%; in experiment [3] it was 90%; in [4] it was 100%; in [5], 90%; in [6] it was 80%. For the same compound, the pest or weed control at 250 g/ha amounted to 90% in experiment [7] and 100% in experiment [8].

In the case of `CC#Cc1cc(C)c(C2=C(O)CC(Cc3ccc(C(C)=O)cn3)C2=O)c(C)c1` (centres unmarked) [Compound A-13], the pest or weed control at 250 g/ha in [1] was 70%; in experiment [2], 100%; in experiment [3] it was 80%; in [4], 80%; in experiment [5], 80%; in experiment [6], 80%. Also, the pest or weed control at 250 g/ha in experiment [7] was determined as 80%; in experiment [8], 100%.

Consider `C#CCC1CC(=O)C(c2c(C)cc(C#CC)cc2C)C1=O` (centres unmarked) [Compound A-20], for which the pest or weed control at 250 g/ha in experiment [1] is 100%; in experiment [2], 100%; in experiment [3], 100%; in experiment [4] it was 90%; in [5] it was 100%; in [6], 90%. The pest or weed control at 250 g/ha in [7] and in experiment [8] was 100% throughout.

With `CC#CCC1CC(=O)C(c2c(C)cc(C#CC)cc2C)C1=O` (centres unmarked) [Compound A-21], the pest or weed control at 250 g/ha in [1] came to 100%; in experiment [2] it was 100%; in experiment [3] it was 100%; in [4], 80%; in [5], 100%; in experiment [6] it was 60%. Further, the pest or weed control at 250 g/ha in experiment [7] and in [8] was 100% in each case.

Regarding `CC#Cc1cc(C)c(C2C(=O)CC(CC#CCl)C2=O)c(C)c1` (centres unmarked) [Compound A-22], the pest or weed control at 250 g/ha worked out at 60% in [1]; 100% in [2]; 80% in [3]; 0% in experiment [4]; 90% in experiment [5]; 80% in [6]. For the same compound, the pest or weed control at 250 g/ha in experiment [7] turned out to be 90%; in experiment [8] it was 100%.

On to `CC#Cc1cc(C)c(C2C(=O)CC(Cc3ccc(C#N)c(NC)n3)C2=O)c(C)c1` (centres unmarked) [Compound A-23, 6-[[3-(2,6-dimethyl-4-prop-1-ynyl-phenyl)-2,4-dioxo-cyclopentyl]methyl]-2-(methylamino)pyridine-3-carbonitrile], for which the pest or weed control at 250 g/ha in experiment [1] was determined as 100%; in experiment [2], 100%; in experiment [3], 90%; in [4] it was 90%; in experiment [5], 80%; in experiment [6], 80%. For the same compound, the pest or weed control at 250 g/ha is 80% in experiment [7] and 100% in experiment [8].

Turning to `CC#Cc1cc(C)c(C2C(=O)CC(Cc3ccn[nH]3)C2=O)c(C)c1` (centres unmarked) [Compound A-24], the pest or weed control at 250 g/ha in experiment [1] was 100%; in [2] it was 100%; in experiment [3] it was 100%; in experiment [4], 100%; in experiment [5], 100%; in experiment [6], 80%. The pest or weed control at 250 g/ha in [7] and in experiment [8] was 100% each time.

As to `C#CCC1CC(=O)C(c2c(C)cc(C#CCl)cc2C)C1=O` (centres unmarked) [Compound A-25], the pest or weed control at 250 g/ha stood at 90% in experiment [1]; 100% in experiment [2]; 100% in experiment [3]; 100% in [4]; 100% in experiment [5]; 70% in experiment [6]. Moreover, the pest or weed control at 250 g/ha in [7] worked out at 90%; in experiment [8], 100%.

As for `CC#Cc1cc(C)c(C2C(=O)CC(Cc3ccc(C#N)cn3)C2=O)c(CC)c1` (centres unmarked) [Compound A-27], the pest or weed control at 250 g/ha in [1] came to 70%; in experiment [2] it was 100%; in experiment [3], 90%; in experiment [4] it was 100%; in experiment [5], 100%; in [6] it was 90%. The results for the pest or weed control at 250 g/ha in experiment [7] and in [8] were 90% and 100%, respectively.

Regarding `CC#Cc1cc(C)c(C2C(=O)CC(Cc3ccc(C#N)cc3)C2=O)c(C)c1` (centres unmarked) [Compound A-28], the pest or weed control at 250 g/ha worked out at 90% in [1]; 100% in [2]; 90% in [3]; 80% in [4]; 90% in [5]; 70% in experiment [6]. In addition, the pest or weed control at 250 g/ha worked out at 70% in [7] and 100% in experiment [8].

For the compound `CC#Cc1cc(C)c(C2C(=O)CC(Cc3ccccc3C#N)C2=O)c(C)c1` (centres unmarked) [Compound A-29], the pest or weed control at 250 g/ha was found to be 100% in experiment [1]; 100% in experiment [2]; 100% in experiment [3]; 80% in experiment [4]; 50% in experiment [5]; 100% in experiment [6]. Besides, the pest or weed control at 250 g/ha was found to be 50% in experiment [7] and 80% in [8].

With `Cc1cc(-c2ccc(F)cc2)cc(C)c1C1C(=O)CC(Cc2ccccn2)C1=O` (centres unmarked) [Compound T71, from WO 2010/069834, reference compound], the pest or weed control at 30 g/ha in experiment [9] stood at 100%; in experiment [10] it was 100%; in [11], 90%; in experiment [12], 100%; in experiment [13] it was 80%.

As for `Cc1cc(-c2ccc(F)c(Cl)c2)cc(C)c1C1C(=O)CC(Cc2ccccn2)C1=O` (centres unmarked) [reference compound], the pest or weed control at 30 g/ha was determined as 90% in experiment [9]; 90% in experiment [10]; 70% in experiment [11]; 100% in experiment [12]; 70% in experiment [13].
